≈ marks a conversion by molar mass, not a printed value. Calls of active or inactive are those of the source. The rule behind the calls is not given here.
How the values were obtained:
[1] = test system: Chromobacterium violaceum; experiment: Inhibition of Quorum sensing system in Chromobacterium violaceum CV026 after 24 hrs by agar-well diffusion method
[2] = test system: Chromobacterium violaceum; experiment: Inhibition of Quorum sensing system in Chromobacterium violaceum CV026 assessed as inhibition of violacein synthesis at 25 to 150 uM after 18 hrs by spectrophotometric assay
[3] = test system: Pseudomonas aeruginosa PAO1; experiment: Inhibition of Quorum sensing system in Pseudomonas aeruginosa PAO1 assessed as inhibition of swarming motility at 100 uM after 16 hrs
[4] = test system: Chromobacterium violaceum; experiment: Inhibition of Quorum sensing system in Chromobacterium violaceum CV026 at 1 to 4 mg/ml after 24 hrs by agar-well diffusion method
[5] = test system: Chromobacterium violaceum; experiment: Inhibition of Quorum sensing system in Chromobacterium violaceum CV026 assessed as inhibition of violacein synthesis at 150 uM after 18 hrs by spectrophotometric assay
[6] = test system: Pseudomonas aeruginosa PAO1; experiment: Inhibition of Quorum sensing system in Pseudomonas aeruginosa PAO1 assessed as inhibition of pyocyanin production at sub-MIC concentration after 16 to 18 hrs by spectrophotometric assay
[7] = test system: Pseudomonas aeruginosa PAO1; experiment: Inhibition of Quorum sensing system in Pseudomonas aeruginosa PAO1 assessed as inhibition of pyocyanin production at 400 uM after 16 to 18 hrs by spectrophotometric assay
Pseudomonas aeruginosa [8] = experiment: Antibacterial activity in Pseudomonas aeruginosa PAO1 at 400 uM measured every 2 hrs for 24 hrs by microplate reader analysis; assay type: functional, organism-based
[9] = test system: Chromobacterium violaceum; experiment: Antibacterial activity in Chromobacterium violaceum CV026 for 16 hrs; assay type: functional; details: CV026, 16 h
Pseudomonas aeruginosa [10] = experiment: Antibacterial activity in Pseudomonas aeruginosa PAO1 for 16 hrs; assay type: functional; details: PAO1, 16 h
Pseudomonas aeruginosa [11] = experiment: Decrease in lasI gene expression in Pseudomonas aeruginosa PAO1 at 400 uM by RT-PCR analysis relative to control; assay type: functional
Pseudomonas aeruginosa [12] = experiment: Decrease in lasR gene expression in Pseudomonas aeruginosa PAO1 at 400 uM by RT-PCR analysis; assay type: functional, organism-based
Pseudomonas aeruginosa [13] = experiment: Decrease in rhII gene expression in Pseudomonas aeruginosa PAO1 at 400 uM by RT-PCR analysis; assay type: functional, organism-based
Pseudomonas aeruginosa [14] = experiment: Decrease in rhIR gene expression in Pseudomonas aeruginosa PAO1 at 400 uM by RT-PCR analysis; assay type: functional, organism-based
[15] = test system: Chromobacterium violaceum; experiment: Antibacterial activity in Chromobacterium violaceum CV026 at 100 ug/well by agar-well diffusion method; assay type: functional, organism-based
[16] = test system: Chromobacterium violaceum; experiment: Inhibition of Quorum sensing system in Chromobacterium violaceum CV026 assessed as violacein synthesis at 25 and 50 uM after 18 hrs by spectrophotometric assay
[17] = test system: Chromobacterium violaceum; experiment: Inhibition of Quorum sensing system in Chromobacterium violaceum CV026 assessed as inhibition of violacein synthesis at 75 uM after 18 hrs by spectrophotometric assay
[18] = test system: Chromobacterium violaceum; experiment: Inhibition of Quorum sensing system in Chromobacterium violaceum CV026 assessed as inhibition of violacein synthesis at 125 uM after 18 hrs by spectrophotometric assay
[19] = test system: Chromobacterium violaceum; experiment: Antibacterial activity in Chromobacterium violaceum CV026 at 0.6 mg/ml by agar-well diffusion method; assay type: functional, organism-based
[20] = test system: Chromobacterium violaceum; experiment: Antibacterial activity in Chromobacterium violaceum CV026 at >50 ug/well by agar-well diffusion method; assay type: functional, organism-based
[21] = test system: Chromobacterium violaceum; experiment: Inhibition of Quorum sensing system in Chromobacterium violaceum CV026 assessed as inhibition of violacein synthesis at >100 uM after 18 hrs by spectrophotometric assay
[22] = test system: Chromobacterium violaceum; experiment: Inhibition of Quorum sensing system in Chromobacterium violaceum assessed as inhibition of violacein synthesis; details: concentration not given here

In the case of `COc1ccc(CCc2cc(O)cc(O)c2)cc1OC`, the inhibition [1] is reported as “inactive”.

`Oc1cc(O)cc(/C=C/c2ccc(O)cc2O)c1` [OXYRESVERATROL] was tested, and the inhibition [2] was “Active”, the inhibition [3] was “Active” and the inhibition [4] was “Active”. For the same compound, the inhibition [5] was 86%, the inhibition [6] was “Active” and the inhibition [7] was 50.2%. For the same compound, the Activity (Pseudomonas aeruginosa [8]) was “inactive”, the MIC [9] was 250 µg/mL (≈ 1020 µM) and the MIC (Pseudomonas aeruginosa [10]) was > 1000 µg/mL. The “fold change (FC)” value (Pseudomonas aeruginosa [11]) was 3, the inhibition (Pseudomonas aeruginosa [12]) was “Active” and the inhibition (Pseudomonas aeruginosa [13]) was “Active”. For the same compound, the inhibition (Pseudomonas aeruginosa [14]) was “Active”.

`Oc1cc(O)cc(/C=C/c2ccc(O)c(O)c2)c1` [PICEATANNOL] was tested, and the inhibition [3] was “Active”, the inhibition [4] was “Active” and the Activity [15] was “Active”. The inhibition [16] was “inactive”, the inhibition [17] was “Active” and the inhibition [18] was 46%. For the same compound, the inhibition [5] was 73%, the inhibition [6] was “Active” and the inhibition [7] was 37.1%. The Activity (Pseudomonas aeruginosa [8]) was “inactive”, the MIC [9] was 250 µg/mL (≈ 1020 µM) and the MIC (Pseudomonas aeruginosa [10]) was > 1000 µg/mL. For the same compound, the “fold change (FC)” value (Pseudomonas aeruginosa [11]) was 5, the inhibition (Pseudomonas aeruginosa [12]) was “Active” and the inhibition (Pseudomonas aeruginosa [13]) was “Active”. For the same compound, the inhibition (Pseudomonas aeruginosa [14]) was “Active”.

For `COc1ccc(CCc2cc(OC)c(OC)c(OC)c2)cc1O`, the inhibition [1] was “inactive”.

For `COc1cc(/C=C/c2ccc(O)cc2)cc(OC)c1`, the inhibition [1] was “inactive”.

In the case of `COc1c(O)cc2ccc3c(OC)c(O)ccc3c2c1OC`, the inhibition [1] is reported as “inactive”.

In the case of `COc1ccc(CCc2cc(OC)c(O)c(OC)c2)cc1O`, the inhibition [1] is reported as “inactive”.

With GENTAMICIN the Activity [19] was “Active”.

In the case of `Oc1ccc(/C=C/c2cc(O)cc(O)c2)cc1` [RESVERATROL], the inhibition [2] is reported as “Active”, the inhibition [3] is reported as “Active” and the inhibition [4] is reported as “Active”. The Activity [20] was “Active”, the inhibition [21] was > 80% and the inhibition [6] was “Active”. The inhibition [7] was 59.3%, the Activity (Pseudomonas aeruginosa [8]) was “inactive” and the MIC [9] was 150 µg/mL (≈ 657 µM). For the same compound, the MIC (Pseudomonas aeruginosa [10]) was > 1000 µg/mL, the “fold change (FC)” value (Pseudomonas aeruginosa [11]) was 2 and the inhibition (Pseudomonas aeruginosa [12]) was “Active”. The inhibition (Pseudomonas aeruginosa [13]) was “Active”, the inhibition (Pseudomonas aeruginosa [14]) was “Active” and the inhibition [22] was 70%.

In the case of `COc1ccc(CCc2cc(OC)c(OC)c(OC)c2)cc1OC`, the inhibition [1] is reported as “inactive”.

`COc1cc2ccc3c(OC)c(O)ccc3c2c(OC)c1OC` was tested, and the inhibition [1] was “inactive”.
